Test results published in patent US20180265463A1, “Vitamin D3 Derivatives and Pharmaceutical Use Thereof” (Kyoto University, priority 2014, published 2018).
“Also recorded” adds a separate entry of the source. Read-outs that look alike come from different tables or passages of the source. One block for each compound: values may come before it.

Columns and labels:
Format in all cases: cell-based, Chinese hamster
SREBP = test: SRE-driven luciferase reporter assay of SREBP activation; conditions: luciferase reporter in CHO-K1 cells, lipid-depleted medium, 20-24 h, normalized to β-galactosidase, averages of three independent experiments, read-out: IC50 (μM), inhibitory effect on the activation of SREBP
Procedure: The transfected cells were treated with DMSO alone, sterols (10 μg/mL cholesterol and 1.0 μg/mL 25-HC), or varied concentrations of 25(OH)D in a medium containing lipid-free serum. Luciferase activity was measured after 20 h incubation, and the data were normalized to β-galactosidase activity. Values are the mean±SD of three independent experiments.
The molecules in a chemical library which consists of 280 endogenous lipid related molecules were screened for their ability to inhibit the expression of a luciferase reporter gene. In this gene, three repeats of sterol regulatory elements (SREs) control expression of luciferase. Lipid depletion activates SREBPs, which bind to the SRE domain and work as transcription factors to express luciferase. The SREBP-responsive reporter construct was co-transfected into Chinese hamster ovary K1 (CHO-K1) cells, along with a control β-galactosidase (β-gal) reporter gene. A constitutively active actin promoter in the reporter gene drives the expression of β-gal. The levels of luciferase expression from the SREBP-responsive reporter gene were normalized to the levels of β-gal expression.
CHO-K1 cells were maintained in a medium A (1:1 mixture of Ham's F-12 medium and Dulbecco's modified Eagle medium, supplemented with 100 units/mL penicillin, 100 μg/mL streptomycin sulfate, and 5% (v/v) fetal bovine serum) at 37° C. under humidified 5% CO2.
On day 0, CHO-K1 cells were added to 96-well plates at 1.0×10^4 cells per well in medium A. On day 1, the cells were co-transfected with an SRE-1-driven luciferase reporter construct (pSRE-Luc) and pAc-β-gal at a 20/1 ratio, using FuGENE(Registered trademark) HD transfection reagent (Promega), according to the manufacturer's protocol. After 8-12 h of incubation, the cells were washed with PBS buffer, then incubated in medium B containing the specific test compounds. […] After 20-24 h of incubation, the cells in each well were lysed by freeze-thaw with Reporter Lysis Buffer (Promega), and aliquots were used to measure luciferase and β-galactosidase activities. Luciferase activity was measured using the Steady-Glo(Registered trademark) Luciferase Assay System (Promega), and β-galactosidase activity was measured using the β-galactosidase Enzyme Assay System (Promega). Luciferase activity was normalized to β-galactosidase activity.

SREBP-2 = test: Western-blot analysis of SREBP-2 in CHO-K1 cells; conditions: 5 μM; for levels of the mature form of SREBP versus DMSO: 16 h, CHO-K1 cells (FIG. 7, FIG. 8)
Procedure: CHO-K1 cells were treated with DMSO alone or each molecule (5 μM) for 18 h. The levels of precursor and mature forms of SREBP-2 were analyzed by Western-blot. Western-blots of actin are shown in lower panel as a loading control.
CHO-K1 cells were treated with DMSO alone or each molecule (5 μM) for 16 h. The levels of precursor and mature forms of SREBP-2 were analyzed by Western-blot. Western-blots of actin are shown in lower panel as a loading control.
On day 0, CHO-K1 cells were added to 6-well plates at 3.0×10^5 cells per well in medium A. On day 1, the cells were washed with PBS, and then incubated in medium B in the absence or presence of specific test compounds (5 μM). After 16 h of incubation, the cells were washed three times with cold PBS, and lysed with a buffer A (50 mM Tris-HCl (pH 7.5), 150 mM NaCl, 1% (v/v) Nonidet P40, 0.5% (w/v) sodium deoxycholate, 8 M urea, and protease inhibitor cocktail (Nacalai)). The cell lysate were passed 16 times through a 25 G needle and centrifuged at 7,000 g at 4° C. for 10 min. The supernatants were transferred to new tubes, and the pellets were extracted with a buffer A. The resulting buffer was centrifuged at 7,000 g at 4° C. for 10 min, and the supernatants were combined to the previous ones. The resulting lysate was mixed with 0.20 volume of 6×SDS sample buffer (Nacalai) and incubated at room temperature for 30 min. The samples were separated on a 10% SDS-PAGE gel and blotted, using mouse monoclonal antibodies against SREBP-2 (IgG-7D4), SCAP (IgG-9D5), c-Myc (IgG1-MC045), and actin (AC-40). The specific bands were visualized using enhanced chemiluminescence (ECL Prime Western Blotting Detection Reagent, GE Healthcare) on an ImageQuant LAS 500 (GE Healthcare).

[1] = test system: SREBP-2 fragment fused to PLAP (PLAP-BP2513-1141); test: PLAP-BP assay (secreted alkaline phosphatase reporter of SREBP translocation and processing); conditions: VD derivatives 10 μM, 20 h, CHO-K1 co-transfected with PLAP-BP2 and SCAP; average of two experiments

Compound: 1α-NHNs VD3 [Compound 28]
IC50 (SREBP): 0.68 µM
levels of the mature form of SREBP versus DMSO (SREBP-2): lower than that of DMSO

Compound: C=C1C(=CC=C2CCCC3(C)C2CCC3C(C)CCCC(C)C)CC(O)CC1NC(C)=O (stereo not drawn) [Compound 22b, 1β-NHAc VD3]
IC50 (SREBP): 3.56 µM
levels of the mature form of SREBP versus DMSO (SREBP-2): lower than that of DMSO

Compound: C[C@H](CCCC(C)(C)O)[C@H]1CC[C@H]2/C(=C/C=C3/C[C@@H](O)C[C@H](NS(=O)(=O)c4cccc5c(N(C)C)cccc45)C3)CCC[C@]12C [Compound 91, 19-Nor 1α-NHDns-3β-OH VD3]
IC50 (SREBP; Cricetulus griseus): 1.17 µM

Compound: C=C1C(=CC=C2CCCC3(C)C2CCC3C(C)CCCC(C)C)CC(O)CC1NS(=O)(=O)c1ccc(C)cc1 (stereo not drawn) [Compound 32, 1α-NHTs VD3]
IC50 (SREBP): 0.61 µM
levels of the mature form of SREBP versus DMSO (SREBP-2): lower than that of DMSO

Compound: C[C@H](CCCC(C)(C)O)[C@H]1CC[C@H]2/C(=C/C=C3/C[C@@H](O)C[C@H](NS(C)(=O)=O)C3)CCC[C@]12C [Compound 89, 19-Nor 1α-NHMs-3β-OH VD3]
IC50 (SREBP; Cricetulus griseus): 3.34 µM

Compound: C[C@H](CCCC(C)(C)O)[C@H]1CC[C@H]2/C(=C/C=C3/C[C@@H](O)C[C@H](NC(=O)C(F)(F)F)C3)CCC[C@]12C [Compound 90, 19-Nor 1α-NH(Trifluoroacetyl)-3β-OH VD3]
IC50 (SREBP; Cricetulus griseus): 0.83 µM

IC50 (SREBP): 2.71 µM
Compound: 1α-OH-3α-NHTs VD3 [Compound 73]

Compound: Cc1ccc(S(=O)(=O)N[C@@H]2C/C(=C\C=C3/CCC[C@]4(C)[C@@H]([C@H](C)CCCC(C)(C)O)CC[C@@H]34)C[C@@H](O)C2)cc1 [Compound 85, 19-Nor 1α-NHTs-3β-OH VD3]
IC50 (SREBP; Cricetulus griseus): 0.52 µM

Compound: C=C1C(=CC=C2CCCC3(C)C2CCC3C(C)CCCC(C)C)CC(O)CC1NC(C)=O (stereo not drawn) [Compound 22a, 1α-NHAc VD3]
IC50 (SREBP): 3.24 µM
levels of the mature form of SREBP versus DMSO (SREBP-2): lower than that of DMSO

IC50 (SREBP): 1.69 µM
Compound: 19-Nor 1β-NHTs-3β-OH VD3 [Compound 72]

IC50 (SREBP): 1.11 µM
Compound: 19-Nor 1β-NH(p-SCF3Bz)-3β-OH VD3 [Compound 74]

Compound: C=C1/C(=C\C=C2/CCC[C@]3(C)[C@@H]([C@H](C)CCCC(C)(C)O)CC[C@@H]23)C[C@@H](O)C[C@@H]1O [1,25(OH)2D, 1α,25-dihydroxyvitamin D3]
secretion of PLAP [1]: inhibited the secretion of PLAP to a greater extent than sterol; also recorded: caused a greater decrease in PLAP secretion than did cholesterol

Compound: C=C1/C(=C\C=C2/CCC[C@]3(C)[C@@H]([C@H](C)CCCC(C)(C)O)CC[C@@H]23)C[C@@H](O)C[C@@H]1NCC1CC1 [Compound 49, 1α-NH(Cyclopropylmethyl) VD3]
IC50 (SREBP; Cricetulus griseus): 16 µM

IC50 (SREBP): 2.05 µM
Compound: 19-Nor 1β-NPhth-3β-OH VD3 [Compound 76]

Compound: C[C@H](CCCC(C)(C)O)[C@H]1CC[C@H]2/C(=C/C=C3/C[C@@H](O)C[C@H](NC(=O)c4ccc(SC(F)(F)F)cc4)C3)CCC[C@]12C [Compound 86, 19-Nor 1α-NH(p-SCF3Bz)-3β-OH VD3]
IC50 (SREBP; Cricetulus griseus): 0.53 µM

Compound: C=C1/C(=C\C=C2/CCC[C@]3(C)[C@@H]([C@H](C)CCCC(C)(C)O)CC[C@@H]23)C[C@@H](O)C[C@@H]1NC(=O)c1ccc(Br)cc1 [Compound 39, 1α-NH(p-BrBz) VD3]
IC50 (SREBP; Cricetulus griseus): 0.97 µM
levels of the mature form of SREBP versus DMSO (SREBP-2): lower than that of DMSO

Compound: C[C@H](CCCC(C)(C)O)[C@H]1CC[C@H]2[C@@H]3CC=C4C[C@@H](O)CC[C@]4(C)[C@H]3CC[C@]12C [Compound 25-HC, 25-hydroxycholesterol, reference compound]
level of mature form of SREBP (SREBP-2; 18 h, CHO-K1 cells (FIG. 3)): disappeared
level of precursor form of SREBP (SREBP-2; 18 h, CHO-K1 cells (FIG. 3)): accumulated

Compound: 1α-NH(p-CF3Bz) VD3 [Compound 38]
IC50 (SREBP): 1.76 µM
levels of the mature form of SREBP versus DMSO (SREBP-2): lower than that of DMSO

IC50 (SREBP): 1.55 µM
Compound: 1α-OH-3α-NHPhth VD3 [Compound 77]

Compound: C=C1C(=CC=C2CCCC3(C)C2CCC3C(C)CCCC(C)C)CC(O)CC1NC(=O)OC(C)(C)C (stereo not drawn) [Compound 18a, 1α-NHBoc VD3]
IC50 (SREBP): 0.82 µM

Compound: C[C@H](CCCC(C)(C)O)[C@H]1CC[C@H]2/C(=C/C=C3/C[C@@H](O)C[C@H](F)C3)CCC[C@]12C [Compound 98, 19-Nor 1α-F-3β-OH VD3]
IC50 (SREBP; Cricetulus griseus): 1.59 µM

Compound: C[C@H](CCCC(C)(C)O)[C@H]1CC[C@H]2/C(=C/C=C3/C[C@@H](O)C[C@H](N4C(=O)c5ccccc5C4=O)C3)CCC[C@]12C [Compound 87, 19-Nor 1α-NPhth-3β-OH VD3]
IC50 (SREBP; Cricetulus griseus): 0.52 µM

Compound: C=C1C(=CC=C2CCCC3(C)C2CCC3C(C)CCCC(C)C)CC(O)CC1NC(=O)OCc1ccccc1 (stereo not drawn) [Compound 36, 1α-NHCbz VD3]
IC50 (SREBP): 1.38 µM
levels of the mature form of SREBP versus DMSO (SREBP-2): lower than that of DMSO
